Assay results from patent US20230225315A1, “METHODS OF DELIVERING PLANT VIRUS-BASED NANOPESTICIDES” (priority 2019, published 2023).

Tests used:
[1] = Soil column mobility (soil transport behaviour); format: physicochemical
Description: […] […] (pH 7.0) to the centre of the soil surface at the top of the column We added 10 mM KP buffer (pH 7.0) at a constant flow rate of 1.5 ml min^−1 and collected the eluent in 500-μL fractions. Up to 150 fractions were collected in each trial (two trials for each formulation and depth) and stored at 4° C.
The elution fractions containing TMGMV, PhMV or CPMV were analysed by SDS-PAGE to determine the mass of nanoparticles recovered in each elution fraction. […] TMGMV and PhMV were analysed on 4-12% NuPage polyacrylamide SDS gels cast according to the Surecast Handcast protocol (Invitrogen). […]
All nanoparticles were imaged in triplicate and the images were analysed using ImageJ The area under the curve (AUC) of the standards was used to create a linear standard curve relating the AUC of the elution samples to the total mass of nanoparticles present in the corresponding elution fraction. […]
To establish the soil transport behaviour of each formulation, we conducted mobility studies using a cylindrical column of diameter 28 mm packed with topsoil at a constant bulk density of 0.32 g cm^−3. […] Fractions containing virus-based formulations were analysed by SDS-PAGE to determine the mass of recovered nanoparticles. […]

nematode = conditions: concentration to be achieved in the rhizosphere; cited from earlier work
[2] = cited from earlier work

| Substance | soil depth penetrated by free Cy5 ([1]; 500 μg free Cy5, soil column 10 mm diameter) [cm] | mass of injected Cy5 recovered ([1]; free Cy5, column with a soil depth of 2 cm) | IC50 value (nematode) | solubility in water [2] |
| --- | --- | --- | --- | --- |
| Cyanine 5 [Cy5] | ≤ 4 | About 40% | – | – |
| abamectin | – | – | 1.309×10^−4 mg cm^−3 | insoluble |
